Measured values published in patent US8653095B2, “Small molecules with antimalarial activity” (Radix Pharmaceuticals, Inc., priority 2011, dated 2014).
Where “and” joins values, the source holds several entries; their conditions need not be identical. Identical values can stand only once. Entries after “also recorded” stand apart in the source; their conditions may differ. Like-named read-outs stand apart in the source and are kept apart here.

Tests used:
P. falciparum PH3 = assay: In vitro blood stage antimalarial efficacy, [3H]hypoxanthine uptake, strain PH3; format: cell-based; conditions: Plasmodium falciparum; read-out: IC50
Experimental: (§1) In Vitro Blood Stage Antimalarial Efficacy Evaluation. New compounds were tested against a panel of strains of P. falciparum.
(§2) Test compounds were initially dissolved in DMSO and diluted 400 fold in RPMI 1640 culture medium supplemented with 25 mM Hepes, 32 mM NaHCO3 and 10% Albumax I (Gibco, NY). These solutions were subsequently serially diluted two-fold with a Beckman Biomek® 1000 Robot (Fullerton, Calif.) over 11 different concentrations. The parasites were exposed to serial dilutions of each compound for 48 hrs and incubated at 37° C. with 5% O2, 5% CO2 and 90% N2 prior to the addition of [^3H]hypoxanthine. After a further incubation of 18 hrs, parasite DNA was harvested from each microtiter well using Packard Filtermate™ 196 Harvester (Meriden, Conn.) onto glass filters. Uptake of [^3H]hypoxanthine was measured with a Packard TopCount Liquid Scintillation Counter (Packard Instrument Co.).

P. falciparum DD2 = assay: In vitro blood stage antimalarial efficacy, [3H]hypoxanthine uptake, strain DD2; format: cell-based; conditions: Plasmodium falciparum, read-out: IC50
Experimental: as §1, §2

P. falciparum K1 = assay: In vitro blood stage antimalarial efficacy, [3H]hypoxanthine uptake, strain K1; format: cell-based; conditions: Plasmodium falciparum, read-out: IC50
Experimental: as §1, §2

P. falciparum V1S = assay: microbe, parasite or virus in culture; format: cell-based; conditions: Plasmodium falciparum
Experimental: as §1, §2

[1] = tested on: Liver stage of P. yoelii yoelii; assay: In vitro liver-stage antimalarial efficacy evaluation; format: cell-based; conditions: Plasmodium yoelii
Experimental: In Vitro Liver-Stage Antimalarial Efficacy Evaluation. Any new desirable antimalarial drug should be broad spectrum: it should be active against both the blood stage and the liver stage of the parasite. New compounds were assessed on the Plasmodium yoelii liver stage in vitro. The liver stage of P. yoelii is a parasite of rodent extensively used as an experimental model for studying the initial phase of the malaria infection.

P. berghei NK-65 = assay: In vivo efficacy in Swiss mice infected with P. berghei; conditions: Plasmodium berghei
[2] = tested on: P. falciparum African NF54 strain; assay: In vivo efficacy in immunocompromised BXN mice infected with P. falciparum NF54; conditions: Plasmodium falciparum, 96 h, oral once daily for 4 days
From the text: (§3) Antimalarial efficacy data was obtained by evaluating new compounds in two rodent models: (I) Swiss mice infected with rodent malaria strain P. berghei; (II) Immunocompromised BXN mice infected with either the sensitive P. falciparum African NF54 strain or the multi-drug resistant P. falciparum Thailand T24 strain.

[3] = tested on: multi-drug resistant P. falciparum Thailand T24 strain; assay: In vivo efficacy in immunocompromised BXN mice infected with P. falciparum T24; conditions: Plasmodium falciparum, 96 h, oral once daily for 4 days
From the text: as §3

Plasmodium berghei = assay: Oral prophylactic test in mice; format: in vivo; conditions: for Mice infected and treated/Mice surviving day 60: oral; for Protection from malaria (oral prophylactic activity): mice, single dose of 0.5 mg/kg within 2 days pre-infection through 2 days post-infection
Experimental: Derivative compounds were also tested for oral prophylactic activity.
CD-I male or female mice, 5 weeks of age, were infected with 5×10^4 parasitized erythrocytes of Plasmodium berghei strain. Blood films were taken on day +6 and weekly thereafter until day+30. […]

[4] = tested on: Plasmodium cynomolgi sporozoite; assay: Causal prophylactic activity in P. cynomolgi sporozoite-challenged Rhesus monkeys; format: in vivo; conditions: PO, 15 mg/kg, 1 daily for 3 days, one value per monkey
From the text: Two monkeys were used in each test group. The control animals developed parasitemia in about 10 days after inoculation of about 1×10^6 P. cynomolgi sporozoites harvested from Anopheles dirus. All the monkeys received three treatments, once a day for three consecutive days beginning a day before (−1, 0,+1) the sporozoites challenge. The control monkeys (group 1) received HECT and the experimental animals received testing compound by using 8 Fr., 15-in. long nasogastric tubes.

Plasmodium cynomolgi = assay: Radical curative activity in relapsed Rhesus monkeys; format: in vivo; conditions: for Monkeys cured: co-administered with chloroquine; for Days post-treatment (relapse) / Results (radical curative test): with CQ 10 mg/kg/day for 7 days, one value per monkey
From the text: Compounds with antihypnozoite activity will delay the relapse or radically cure the infection. […] Relapse was expected in the control group. Relapse in the treated group indicates failure of the test compounds. […] After standard treatment, blood smears were monitored daily for 4 consecutive days of negative results and 2 times weekly for 2 weeks.

in vivo = conditions: Sprague-Dawley, rat, po; for MTD at 2 weeks: MTD (maximum tolerated dose)
[5] = 96 h, P. berghei NK-65, Swiss mice, oral once daily for 4 days, read-out: ED50
[6] = read-out: ED50 (the dose leading to 50% parasite growth inhibition compared to the blank control)
[7] = day of treatment 1, dose 0.5 mg/kg
[8] = day of treatment 1, dose 2 mg/kg
[9] = day of treatment 1, dose 8 mg/kg
[10] = day of treatment 1, dose 32 mg/kg
[11] = day of treatment 2, dose 0.5 mg/kg
[12] = day of treatment 2, dose 2 mg/kg
[13] = day of treatment 2, dose 8 mg/kg
[14] = day of treatment 2, dose 32 mg/kg
[15] = day of treatment −1, dose 0.5 mg/kg
[16] = day of treatment −1, dose 2 mg/kg
[17] = day of treatment −1, dose 8 mg/kg
[18] = day of treatment −1, dose 32 mg/kg
[19] = day of treatment −2, dose 0.5 mg/kg
[20] = day of treatment −2, dose 2 mg/kg
[21] = day of treatment −2, dose 8 mg/kg
[22] = day of treatment −2, dose 32 mg/kg
[23] = Drug 2 at 15 mg/kg PO 1 daily for 3 days
[24] = Drug 2 at 30 mg/kg PO 1 daily for 3 days

COC[C@@H]([C@@H](O)[C@@H](O)[C@H](N)Cc1ccccc1)[C@@H]1CC[C@@]23CC24c2nc5ccc(OC)cc5cc2C(=O)N[C@H]4CN13 (stereo partly shown) [Formula C]
IC50 (P. falciparum PH3): 0.19 ± 0.04 nM
IC50 (P. falciparum DD2): 0.16 ± 0.03 nM
IC50 (P. falciparum K1): 0.25 ± 0.04 nM
IC50 (P. falciparum V1S): 0.12 ± 0.03 nM
IC50 [1]: 7.1 nM
ED50 (P. berghei NK-65; [5]): 0.11 mg/kg
ED50 (P. berghei NK-65; [6]): < 1 mg/kg
ED50 [2]: 0.2 mg/kg
ED50 [3]: 0.18 mg/kg
Mice infected and treated/Mice surviving day 60 (Plasmodium berghei; [7]): 5/5
Mice infected and treated/Mice surviving day 60 (Plasmodium berghei; [8]): 5/5
Mice infected and treated/Mice surviving day 60 (Plasmodium berghei; [9]): 5/5
Mice infected and treated/Mice surviving day 60 (Plasmodium berghei; [10]): 5/5
Mice infected and treated/Mice surviving day 60 (Plasmodium berghei; [11]): 5/5
Mice infected and treated/Mice surviving day 60 (Plasmodium berghei; [12]): 5/5
Mice infected and treated/Mice surviving day 60 (Plasmodium berghei; [13]): 5/5
Mice infected and treated/Mice surviving day 60 (Plasmodium berghei; [14]): 5/5
Mice infected and treated/Mice surviving day 60 (Plasmodium berghei; [15]): 5/5
Mice infected and treated/Mice surviving day 60 (Plasmodium berghei; [16]): 5/5
Mice infected and treated/Mice surviving day 60 (Plasmodium berghei; [17]): 5/5
Mice infected and treated/Mice surviving day 60 (Plasmodium berghei; [18]): 5/5
Mice infected and treated/Mice surviving day 60 (Plasmodium berghei; [19]): 5/5
Mice infected and treated/Mice surviving day 60 (Plasmodium berghei; [20]): 5/5
Mice infected and treated/Mice surviving day 60 (Plasmodium berghei; [21]): 5/5
Mice infected and treated/Mice surviving day 60 (Plasmodium berghei; [22]): 5/5
Protection from malaria (oral prophylactic activity) (Plasmodium berghei): completely protected
Parasite patency (days postinoculation) [4]: 48 days and 64 days
Monkeys cured (Plasmodium cynomolgi; 15 mg/kg/day level): one out of two monkeys
Monkeys cured (Plasmodium cynomolgi; 30 mg/kg/day level): all monkeys
Days post-treatment (relapse) (Plasmodium cynomolgi; [23]): 53 days and no relapse
Results (radical curative test) (Plasmodium cynomolgi; [23]): delayed relapse; also recorded: radical curative
Days post-treatment (relapse) (Plasmodium cynomolgi; [24]): no relapse
Results (radical curative test) (Plasmodium cynomolgi; [24]): radical curative
NOAEL at 2 weeks (in vivo): > 100 mg/kg/day
MTD at 2 weeks (in vivo): > 500 mg/kg

CC[C@@H](N)[C@H](O)[C@H](O)[C@H](COC)[C@@H]1CC[C@@]23CC24c2nc5ccc(OC)cc5cc2C(=O)N[C@H]4CN13 (stereo partly shown) [Formula B]
IC50 (P. falciparum PH3): 0.17 ± 0.04 nM
IC50 (P. falciparum DD2): 0.27 ± 0.07 nM
IC50 (P. falciparum K1): 0.22 ± 0.05 nM
IC50 (P. falciparum V1S): 0.26 ± 0.05 nM
IC50 [1]: 5.8 nM
ED50 (P. berghei NK-65; [5]): 0.13 mg/kg
ED50 (P. berghei NK-65; [6]): < 1 mg/kg
ED50 [2]: 0.24 mg/kg
ED50 [3]: 0.27 mg/kg
Mice infected and treated/Mice surviving day 60 (Plasmodium berghei; [7]): 5/5
Mice infected and treated/Mice surviving day 60 (Plasmodium berghei; [8]): 5/5
Mice infected and treated/Mice surviving day 60 (Plasmodium berghei; [9]): 5/5
Mice infected and treated/Mice surviving day 60 (Plasmodium berghei; [10]): 5/5
Mice infected and treated/Mice surviving day 60 (Plasmodium berghei; [11]): 5/5
Mice infected and treated/Mice surviving day 60 (Plasmodium berghei; [12]): 5/5
Mice infected and treated/Mice surviving day 60 (Plasmodium berghei; [13]): 5/5
Mice infected and treated/Mice surviving day 60 (Plasmodium berghei; [14]): 5/5
Mice infected and treated/Mice surviving day 60 (Plasmodium berghei; [15]): 5/5
Mice infected and treated/Mice surviving day 60 (Plasmodium berghei; [16]): 5/5
Mice infected and treated/Mice surviving day 60 (Plasmodium berghei; [17]): 5/5
Mice infected and treated/Mice surviving day 60 (Plasmodium berghei; [18]): 5/5
Mice infected and treated/Mice surviving day 60 (Plasmodium berghei; [19]): 5/5
Mice infected and treated/Mice surviving day 60 (Plasmodium berghei; [20]): 5/5
Mice infected and treated/Mice surviving day 60 (Plasmodium berghei; [21]): 5/5
Mice infected and treated/Mice surviving day 60 (Plasmodium berghei; [22]): 5/5
Protection from malaria (oral prophylactic activity) (Plasmodium berghei): completely protected
Parasite patency (days postinoculation) [4]: 41 days and 55 days
Monkeys cured (Plasmodium cynomolgi; 15 mg/kg/day level): one out of two monkeys
Monkeys cured (Plasmodium cynomolgi; 30 mg/kg/day level): all monkeys
Days post-treatment (relapse) (Plasmodium cynomolgi; [23]): 42 days and no relapse
Results (radical curative test) (Plasmodium cynomolgi; [23]): delayed relapse; also recorded: radical curative
Days post-treatment (relapse) (Plasmodium cynomolgi; [24]): no relapse
Results (radical curative test) (Plasmodium cynomolgi; [24]): radical curative
NOAEL at 2 weeks (in vivo): > 100 mg/kg/day
MTD at 2 weeks (in vivo): > 500 mg/kg
